Results on one compound are retold here after ChEMBL document CHEMBL2062495.

Calls of active or inactive are those of the source. The calls are words filed in the database; no cut-off is given here. Square brackets hold non-standard residues; d marks the D form. Peptide text beside a SMILES is read from it. * marks the point of attachment. Sta = CC(C)C[C@H](N)[C@@H](O)CC(=O)O; NMe2Val = CC(C)[C@@H](C(=O)*)N(C)C; dNMeF = CN[C@H](Cc1ccccc1)C(=O)O; dHiv = CC(C)[C@@H](O)C(=O)O; Hiv = CC(C)[C@H](O)C(=O)O

In assay [1] the test system is Dendritic cell. Briefly: Inhibition of MHC class 2-dependent antigen processing in DO11.10 TCR transgenic mouse spleen CD11+ dendritic cells assessed as inhibition of whole ovalbumin-induced CD4+ T cell proliferation incubated for 1 hr prior to whole ovalbumin-challenge measured after 72 hrs by [3H]thymidine incorporation assay. In kind it is functional, tissue-based. On the technique in general: Incorporation of labelled thymidine or its analogues reports DNA synthesis.

The test system of assay [2] is Dendritic cell. Briefly: Inhibition of MHC class 2-dependent antigen processing in DO11.10 TCR transgenic mouse spleen CD11+ dendritic cells assessed as inhibition of ovalbumin 323 to 339-induced CD4+ T cell proliferation incubated for 1 hr prior to ovalbumin 323 to 339 challenge measured after 72 hrs by [3H]thymidine incorporation assay. The format is functional, tissue-based.

Regarding `COC(=O)[C@@H]1CCCN1C(=O)[C@@H](Cc1ccccc1)N(C)C(=O)[C@H](C)NC(=O)[C@@H](NC(=O)C[C@H](O)[C@H](CC(C)C)NC(=O)[C@H](CC(N)=O)NC(=O)[C@H](CC(C)C)NC(=O)[C@H](OC(=O)[C@@H](OC(=O)[C@H](C(C)C)N(C)C)C(C)C)C(C)C)[C@@H](C)O` (NMe2Val-[Hiv][dHiv]LN[Sta]TA[dNMeF]P-OMe), the inhibition entry in the assay on Dendritic cell [1] and in the assay with Dendritic cell [2] was “inactive” throughout.
